How the values were obtained:
[1] = Topical application to forearm of a human (Example VI); assay type: in vivo; settings: 0.4 ml to 80 cm^2 of forearm, 60 kg human
Protocol: A composition for topical administration is prepared by combining the following ingredients:
N-oleyl-4-hydroxy-3-methoxyphenylacetamide, 4 g
The phenylacetamide is melted with slight warming and combined with the other ingredients.

[2] = test system: Croton Oil Inflamed Mouse Ear; assay: Croton Oil Inflamed Mouse Ear Test (Topical treatment); assay type: in vivo, Adult male Cox ICR mice; settings: 1% solution in ethanol, two doses, 4 h after croton oil, All values significant p 0.05
Protocol: Substituted phenylacetic acid amide compounds were tested for anti-inflammatory activity using the Croton Oil Inflamed Mouse Ear Test (Topical treatment).
Adult male Cox ICR mice, 25-35 g, were treated at about 3:00 PM on the left ear with 25 l of a 1% solution of the test compound in ethanol. They were placed in individual stainless steel cages where food and water was available ad libitum. The following morning around 8:00 AM the mice were dosed a second time on the same ear. One hour after the second dose, 25 l of 2% croton oil in acetone was applied to the left ear of the control and test groups.
Four hours after the croton oil treatment, the mice were sacrificed by cervical dislocation and both ears removed. A 5 mm punch biopsy was taken from each ear and weighed to the nearest 0.1 mg on a Cahn electrobalance.
The results were expressed as percent inhibition of the swelling response compared to the control group according to the formula:
(C-Ta..n)/C×100=Percent Inhibition
where C is the average difference between the left and right ear weights of the control group, and
Ta..n is the difference between left and right ear weights of animal (a..n) in a treated group.
Statistical tests for significance between groups were made using a one way analysis of variance of the ear weight differences.

[3] = test system: Carrageenan Rat Paw Edema; assay: Carrageenan Rat Paw Edema Test (Oil Vehicle); assay type: in vivo, Male Sprague Dawley rats; settings: 4 h after carrageenan, All values significant p 0.05
Protocol: Substituted phenylacetic acid amide compounds were tested for anti-inflammatory activity using the Carrageenan Rat Paw Edema Test (Oil Vehicle).
Male Sprague Dawley rats (Charles River Laboratories) were weighed and food fasted overnight. The animals were divided into four to six groups of six animals each according to body weights, average about 145 g, so that each group had about the same average weight (within 10 g).
The following morning five ml of water was dosed orally via stomach tube to each animal to facilitate paw swelling. The animals were dosed with the test compound and then placed in individual cages. The drug was dissolved in ethyl oleate: benzyl alcohol, 98:2, and delivered via stomach tube in 1 ml volume.
Paw volumes (0 time) were determined on both hind paws with a mercury displacement device equipped with a transducer and digitizer. […] Four hours after the carrageenan injection, the paw volumes are again determined.
The results are expressed as percent inhibition of the mean paw volume of the test group relative to the control group according to the formula: […]
Ta..n is the difference in paw swelling in the treated animals (a..n). Statistical differences are determined by one way analysis of variance.

[4] = Oral administration of soft gelatin capsules to a human (Example IV); assay type: in vivo; settings: two capsules each containing 225 mg of the composition, 60 kg human
Protocol: (§1) A composition for oral administration is prepared by combining the following ingredients:
N-oleyl-4-hydroxy-3-methoxyphenylacetamide, 1.10 kg

[5] = Oral administration of syrup to an adult human (Example V); assay type: in vivo; settings: one teaspoon of syrup, 70 kg adult human
Protocol: as §1
N-oleyl-4-hydroxy-3-methoxyphenylacetamide, 250 g
Propylene glycol, 1800 ml
Artificial Cherry flavor, 10 ml
The above ingredients are combined to produce a syrup and are packaged under sterile conditions in 6 oz. bottles.

SMILES	Percent Inhibition (of the swelling response compared to control) [2]	also measured
CCCCCCCCCCCCCCCCCCNC(=O)Cc1ccc(O)c(OC)c1 [N-stearyl-4-hydroxy-3-methoxyphenylacetamide]		Analgesia [1]: weaker analgesic effect; Reduction of inflammation [1]: substantially similar reduction of inflammation
CCCCCCCCCNC(=O)Cc1ccc(O)c(OC)c1 [N-nonyl-4-hydroxy-3-methoxyphenylacetamide]	80.7 +/- 23.0%	
CCCCCCCCNC(=O)C(C)c1ccc(O)c(OC)c1 (stereo not drawn) [N-octyl-4-hydroxy-3-methoxyphenyl-2-methyl-acetamide]	88.9 +/- 24.1%	
CCCCCCCC(C)NC(=O)Cc1ccc(O)c(OC)c1 (stereo not drawn) [N-(2-nonanyl)-4-hydroxy-3-methoxyphenylacetamide]	55.6 +/- 26.5%	
CCCCCCCC/C=C\CCCCCCCCNC(=O)Cc1ccc(O)c(OC)c1 [N-oleyl-4-hydroxy-3-methoxyphenylacetamide]	83.5 +/- 11.9%	Percent Inhibition (of mean paw volume relative to control) ([3]; 200 mg/kg oral in ethyl oleate: benzyl alcohol 98:2): 89.3 +/- 10.8%; Percent Inhibition (of mean paw volume relative to control) ([3]; 400 mg/kg oral in ethyl oleate: benzyl alcohol 98:2): 95.6 +/- 11.2%
C=C(CCCCCCCCC)CCCCCCCCNC(=O)Cc1ccc(O)c(OC)c1 [N-(9-methylene-1-octadecanyl-)-4-hydroxy-3-methoxyphenyl acetamide]		Analgesia [4]: increased analgesic effect; Reduction of inflammation [4]: substantially similar reduction of inflammation
CCCCCCC(C)NC(=O)Cc1ccc(O)c(OC)c1 (stereo not drawn) [N-(2-octanyl-)-4-hydroxy-3-methoxyphenylacetamide]	48.1 +/- 15.8%	
CCCCCCCCCCCCNC(=O)Cc1ccc(O)c(OC)c1 [N-dodecyl-4-hydroxy-3-methoxyphenylacetamide]	55.3 +/- 20.7%	
C=CCCCCCCCCNC(=O)Cc1ccc(O)c(OC)c1 [N-9-decenyl-4-hydroxy-3-methoxyphenylacetamide]	98.9 +/- 11.9%	
CCCCCCCCCCNC(=O)Cc1ccc(O)c(OC)c1 [N-decyl-4-hydroxy-3-methoxyphenylacetamide]	58.1 +/- 29.4%	
COc1cc(CC(=O)NC2CCCCCCC2)ccc1O [N-cyclooctyl-4-hydroxy-3-methoxyphenylacetamide]		Analgesia [5]: weaker analgesic effect; Reduction of inflammation [5]: substantially similar reduction of inflammation
CCCCCCCNC(=O)Cc1ccc(O)c(OC)c1 [N-heptyl-4-hydroxy-3-methoxyphenylacetamide]	69.4 +/- 33.9%	
CCCCCCCCNC(=O)Cc1ccc(O)c(OC)c1 [N-octyl-4-hydroxy-3-methoxyphenylacetamide]	89.1 +/- 15.7%	

— patent publication US5013759A, “Compounds and compositions having anti-inflammatory and analgesic activity” (The Procter & Gamble Company, priority 1990, dated 1991)
